# Paper PMC11064505, “A nanochitosan-D-galactose formulation increases the accumulation of primaquine in the liver” (Antimicrobial Agents and Chemotherapy, 2024)
# Assays:
# [1] = set-up: method as in PMID 16968913, PMID 30379233, PMID 35709685; conditions: human treatment, clinical dose; cited from earlier work
# [2] = set-up: method as in PMID 16140485; conditions: 1 hour after intravenous administration in mice; cited from earlier work
# in vivo = conditions: mouse
# Method: All formulations were given by gavage with a final volume of 200 µL. At different intervals (0.5, 1, 2, 4, 8, and 24 hours), animals were subjected to anesthesia with a mixture of xylazine (10 mg/kg) and ketamine (100 mg/kg). Blood was collected by cardiac puncture, plasma was separated by centrifugation, RBCs were washed three times in saline, and plasma and RBC were stored at −20°C. After the animal was exsanguinated, the liver, lungs, and spleen were collected and frozen in liquid nitrogen until processed for primaquine quantification.
# The extraction procedure was based on Carmo et al. ([22]) and Joshi and Devarajan ([23]). Briefly, 100 µL or 100 mg of the sample was transferred to a 1.5 mL microtube. Then, 100 µL of 2% acetic acid-acidified acetonitrile and 100 µL of ultrapure water were added. Next, the samples were homogenized for 1 minute using a vortex, and 50 µL of 12.5% zinc sulfate solution was added. The samples were homogenized again for 1 minute and left to stand for 20 minutes to ensure complete protein precipitation. After this period, the samples were centrifuged at 7,500 rpm for 15 minutes at room temperature. Finally, the supernatant was collected, and 20 µL was injected into the liquid chromatograph. This process was repeated to construct the eight-point calibration curves (0.39–50 µg/mL).
# The primaquine concentrations in plasma, liver, lung, and spleen samples from mice treated with free primaquine were determined using high-performance liquid chromatography with a UV detector (HPLC-UV). Method validation followed orientations of the Guidance for Bioanalytical Method Validation from the Food and Drug Administration. The method was developed using a Waters liquid chromatography system with an Alliance e2695 Separation Module, quaternary pump, autosampler, degasser, column heater, and a dual channel UV–Vis detector (Milford, USA). The Empower 3 software was used for system control, peak integration, and data analysis. The separation was performed using an XBridge C18 reverse-phase column (150 × 4.6 mm, 5 µm) and an XBridge C18 reverse-phase pre-column (20 × 4.6 mm, 5 µm). For elution and identification of the primaquine, the mobile phase (MP) consisted of (A) potassium phosphate buffer (0.02 mol/L, pH = 3) and (Bi) acetonitrile. […] The flow rate of the MP was set at 1.0 mL/min, the column oven temperature was maintained at 35°C, and the UV detector was set at 266 nm. An injection volume of 20 µL was used, and the total run time was 13 minutes.
# The physicochemical analyses of the nanoparticles were performed in triplicate and are expressed as the mean value ± SD. Statistical significance tests were applied through mixed-model analysis of variance, using Prism GraphPad Software. […] Non-compartmental pharmacokinetic analysis was conducted using PK Solutions 2.0 (Summit Research Services, Ashland, USA). The area under the concentration-time curve was calculated using the trapezoidal method (AUC0-t) from time zero to the last data point and extrapolated to infinity (AUC0-∞). The maximum plasma concentration (Cmax) and the time taken to reach Cmax (Tmax) were obtained from the experimental data. The elimination rate constant (K) was determined from the slope of the regression line, allowing the calculation of the elimination half-life (t1/2β) using the formula 0.693 /K ([24]). All data were presented as mean ± SD.
smiles,measurement,setting,value
"COc1cc(NC(C)CCCN)c2ncccc2c1 (stereo not shown) [Pq, primaquine diphosphate]",Cmax in plasma,[1],around 0.1 µg/mL
same,uptake of the drug (recovery) in the liver,[2],20%
same,Tmax,"in vivo; Swiss Webster, po, 10 mg/kg",30 min
same,liver/plasma ratio for the volume of distribution,"in vivo; Swiss Webster, po, 10 mg/kg",0.1
same,"primaquine concentrations in the liver, variation among animals","in vivo; Swiss Webster, po, 10 mg/kg, 30 minutes",3.5-110 µg of drug per 100 mg of tissue
same,Cmax,"in vivo; Swiss Webster, po, 10 mg/kg, primaquine concentrations in plasma (Cmax), variation among animals",0.4 to 2 µg/mL
same,Cmax of primaquine in the liver relative to the galactose-based nanoformulations,in vivo,about twice as much
